The record followed here is patent US6288125A, “Treatment of hiatial hernia” (Knoll Pharmaceuticals Company, priority 2000, dated 2001).

SMILES strings stand for the structures.

The test system of the assay is reuptake of all three monoamines. Briefly: monoamine reuptake inhibition profile (in words, with reference to Table 1). The assay is classed as biochemical, rat. The note with it: sibutramine through its pharmacologically active metabolites 1 and 2.

As for `CC(C)CC(N(C)C)C1(c2ccc(Cl)cc2)CCC1` (stereo not shown) [sibutramine, N,N-dimethyl-1-[1-(4-chlorophenyl)cyclobutyl]-3-methylbutylamine], the “monoamine reuptake inhibition / selectivity in words” value was “inhibits the reuptake of all three monoamines”.
